Experimental data reported in patent US8008452B2, “Phosphorylated Ndr kinase” (Novartis Forschungesstiftung, Zweigniederlassung Friedrich …, priority 2002, dated 2011).

Tests used:
[1] = test system: GST-NDR1; assay: GST-NDR1 in vitro autophosphorylation, incorporated 32P by Cerenkov counting; type: biochemical, human; settings: for amount of incorporated 32P (autophosphorylation), −S100B / amount of incorporated 32P (autophosphorylation), +S100B: GST-NDR1 variant; for amount of incorporated 32P (autophosphorylation), −S100B: 1 microgram, autophosphorylated 2 hours without further additions, pmol ATP/pmol GST-NDR1; for amount of incorporated 32P (autophosphorylation), +S100B: 2 hours in the presence of 1 mM CaCl2 and 10 microM bovine S100B, in pmol ATP/pmol GST-NDR1; for autophosphorylation rate of GST-NDR1 mutant (in words): compared with wild type
Procedure: BL21-DE3-pRep4 E. coli strain was transformed with the pGEX-2T_NDR1 wild type or mutant plasmids. BL21-DE3 is a protease-deficient E. coli strain and pRep4 is a Laclq repressor-bearing plasmid both available commercially. Optionally, if desired, an E. coli strain comprising GroESL can be used, which expresses a chaperone protein that stabilizes the kinase. Mid-logarithmic phase cells were induced with 0.5 mM isopropyl beta-D-thiogalactopyranoside (IPTG) for 4 hours at 30° C. Bacteria were lysed using a French press in the presence of 1 mg/ml lysosyme, and the fusion proteins were purified on glutathione-agarose (Amersham Pharmacia Biotech) as described by the manufacturers. Recombinant proteins were assayed for kinase activity as described below and autophosphorylation was determined after SDS-PAGE separation either by Cerenkov counting or by exposure to a PhosphorImager screen followed by analysis with ImageQuant software (Molecular Dynamics).
In brief, 1 microgram of purified GST-NDR1 (in solution ˜0.5 microM) wild type, kinase dead (K118A), and alanine mutants of phosphorylation residues Thr74, Ser281, and Thr444 were autophosphorylated for 2 hours in vitro without further additions or in the presence of 1 mM CaCl2 and 10 microM bovine S100B. Proteins were visualized on SDS gels using Coomassie Blue R-350 stained SDS-PAGE gel, and [gamma-^32P]ATP-labelled proteins were visualized by autoradiography of the gels developed on a Phosphorimager screen. The amount of incorporated ^32P was quantified by Cerenkov counting.

[2] = test system: HA-NDR1; assay: HA-NDR1 kinase assay on 12CA5 immunoprecipitates from transfected, treated COS-1 cells; type: cell-based, human; parameters: kinase activity of HA-NDR1 variants, −OA: unit not given here; settings: COS-1 cells; for kinase activity of HA-NDR1 variants, +OA: 1 microM okadaic acid 1 h; for kinase activity of HA-NDR1 variants, −OA: solvent alone 1 h
Procedure: In some experiments, the cells were treated for 60 min with 1 microM okadaic acid in 0.1% N,N-dimethylformamide (DMF) (Alexis Corp.), 50 microM BAPTA-AM (1,2-bis (o-aminophenoxy) ethane-N,N,N′,N′-tetraacetic acid tetra (acetoxy-methyl)ester) in 0.1% diimethylsulfoxide (DMSO; Sigma), or 20 microM thapsigargin in 0.1% DMSO (Alomone) 24 hours after transfection.
Transfected and treated COS-1 cells were washed once with ice-cold PBS, and harvested by rubber policeman in 1 ml ice-cold PBS containing 1 mM Na3VO4 and 20 mM beta-glycerophosphate before lysis in 500 microliters of IP buffer (20 mM Tris-HCl pH 8.0, 150 mM NaCl, 1% Nonidet P-40, 10% glycerol, 1 mM Na3VO4, 20 mM beta-glycerolphosphate, 1 microM microcystin-LR, 50 mM NaF, 0.5 mM PMSF, 4 microM leupeptin, 1 mM benzamidine, and 1 tablet/10 ml IP of Complete protease inhibitors (Roche)). Lysates were centrifuged at 20 000 g for 20 min and triplicate aliquots (200 microg) of supernatant were precleared with protein A-Sepharose (Amersham Pharmacia Biotech) for 60 min and mixed subsequently for 3 h at 4° C. with 12CA5 antibody prebound to protein A-Sepharose (˜1 microg antibody bound to 2 microl beads). The beads were then washed twice with IP buffer, once for 10 min with IP buffer containing 1 M NaCl, once again for 10 min with IP buffer, and finally twice with 20 mM Tris-HCl pH 7.5 containing 4 microM leupeptin and 1 mM benzamidine. Thereafter, beads were resuspended in 30 microliters buffer containing 20 mM Tris-HCl pH 7.5, 10 mM MgCl2, 1 mM DTT, 100 microM [gamma-^32P]ATP (˜0.1 microCi/microliter), 1 microM cAMP-dependent protein kinase inhibitor peptide PKI (Bachem), 4 microM leupeptin, 1 mM benzamidine, 1 microM microcystin-LR, and 1 mM NDR1 substrate peptide ([…]). After 60 min incubation at 30° C., 15 microliters of supernatant were removed, and phosphate incorporation into the substrate peptide determined as described for GST-NDR1 above.
COS-1 cells expressing either wild type HA-NDR1 or the indicated mutants were treated for 1 h with 1 microM okadaic acid or with solvent alone. HA-tagged NDR kinase variants were then immunoprecipitated (out of 100 microgram of detergent extracts) with 12CA5 monoclonal antibody and assayed for kinase activity by a peptide kinase assay as described above.
Mock-transfected or HA-NDR1-expressing COS-1 cells were treated for 1 h with […], 50 microM BAPTA-AM, and […] or with solvent (0.1% DMF or 0.1% DMSO) alone. 12CA5 immunoprecipitates (out of 100 microgram protein extract) were then assayed using the peptide kinase assay for NDR1 kinase activity.
To test whether hMOB1 plays a role in NDR activation, myc-hMOB1 or the empty vector was cotransfected with HA-NDR1 in COS1 cells and treated with OA. 12CA5 immunoprecipitates were then assayed using the peptide kinase assay for HA-NDR kinase activity. […] GST-MOB and GST respectively was added to immunoprecipitated HA-NDR and kinase reaction were performed. The reactions were resolved on a 10% SDS PAGE and the radioactivity visualised by using a phosphoimager.

[3] = test system: myc-hMOB1; assay: Co-immunoprecipitation of HA-NDR and myc-hMOB1 from COS-1 cells; type: binding, human; settings: COS-1 cells treated with OA prior to lysis
Procedure: HA-tagged hNDR and myc-tagged hMOB1 were cotransfected in COS1 cells, which were stimulated with okadaic acid or solvent alone. After cell lysis and extract preparation, HA-NDR was immunoprecipitated and co-immunoprecipitated myc-hMOB1 detected or Myc-hMOB1 was immunoprecipitated and co-immunoprecipitated HA-NDR detected.
HA-NDR, wt and mutants, and myc-hMOB1 were cotransfected into COS-1 cells and the cells were treated with OA prior to lysis. HA-NDR was immunoprecipitated and the coimmunoprecipitated myc-hMOB1 detected. […] Furthermore, the two important in vivo phosphorylation sites of NDR, serine-281 in the activation segment and the hydrophobic motif site threonine-444 in the C-terminal regulatory domain were tested, as well as the threonine 74 site in the N-terminal regulatory domain, for their role in NDR-MOB interaction.
HA-NDR N-terminal point mutants and myc-mob1 were co-transfected into COS1 cells which were treated with OA prior to lysis. HA-NDR mutants were immunoprecipitated and coimmunoprecipitated myc-hMOB1 detected.
In this Example, the effect of treatment of COS1 cells with BAPTA-AM on the NDR-MOB Interaction was determined. HA-NDR and myc-MOB1 was cotransfected into COS1 cells and the cells were treated with BAPTA-AM and OA or the solvents alone prior to lysis. HA-NDR was immunoprecipitated and co-immunoprecipitated myc-MOB1 detected. The kinase activity of the HA-NDR immunoprecipitates was measured in a peptide kinase assay.

| Substance | amount of incorporated 32P (autophosphorylation), −S100B [1] | amount of incorporated 32P (autophosphorylation), +S100B [1] | autophosphorylation rate of GST-NDR1 mutant (in words) [1] | kinase activity of HA-NDR1 variants, +OA [2] | kinase activity of HA-NDR1 variants, −OA [2] | interaction of HA-NDR variant with myc-hMOB1 [3] | interaction of HA-NDR variant with myc-hMOB1 ([3]; listed as threonine 74) |
| --- | --- | --- | --- | --- | --- | --- | --- |
| K118A: NDR1 kinase dead mutant, Lys 118 to alanine; GST fusion or HA-tagged | 0.0076 | 0.0064 | did not show detectable autophosphorylation | 0.0204 | 0.0107 | still able to interact with hMOB1 |  |
| T74A: NDR1 alanine mutant of phosphorylation residue Thr74; GST fusion or HA-tagged | 0.158 | 0.2072 | negligible reduction | 1.053 | 0.124 | complete absence of interaction with MOB1 | not tolerated for the interaction with MOB |
| T444A: NDR1 alanine mutant of phosphorylation residue Thr444; GST fusion or HA-tagged | 0.1232 | 0.2412 | significant decrease | 0.6019 | 0.1067 | still interact with MOB1 |  |
